In PubChem BioAssay AID1963843 (Molecular Pharmacology Branch, DTP, NCI, 2024):

System: 616215-338-R-J1-PDC complex spheroid viability
Experiment: Anticancer human tumor 616215-338-R-J1-PDC patient-derived colon adenocarcinoma cell line growth inhibition [POLQ]
Details: for IC50: curve of first compound; for viability, T/C: stronger effect = lower value
In short: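 Complex spheroid viability model combining PDC tumour cells with endothelial (HUVEC) and MSC stromal cells. Novobiocin, ART-558 or RP6685 were tested singly and in combination with standard and investigational anticancer drugs. Each was titrated in half-log steps from near clinical Cmax, or from 10 microM where Cmax was unknown.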

[1] = second compound 0.0316 µM, first compound 0.0316 µM
[2] = second compound 0.0316 µM, first compound 0.1 µM
[3] = second compound 0.0316 µM, first compound 0.316 µM
[4] = second compound 0.0316 µM, first compound 1 µM
[5] = second compound 0.0316 µM, first compound 3.16 µM
[6] = second compound 0.0316 µM, first compound 10 µM
[7] = second compound 0.1 µM, first compound 0.0316 µM
[8] = second compound 0.1 µM, first compound 0.1 µM
[9] = second compound 0.1 µM, first compound 0.316 µM
[10] = second compound 0.1 µM, first compound 1 µM
[11] = second compound 0.1 µM, first compound 3.16 µM
[12] = second compound 0.1 µM, first compound 10 µM
[13] = second compound 0.316 µM, first compound 0.0316 µM
[14] = second compound 0.316 µM, first compound 0.1 µM
[15] = second compound 0.316 µM, first compound 0.316 µM
[16] = second compound 0.316 µM, first compound 1 µM
[17] = second compound 0.316 µM, first compound 3.16 µM
[18] = second compound 0.316 µM, first compound 10 µM
[19] = second compound 1 µM, first compound 0.0316 µM
[20] = second compound 1 µM, first compound 0.1 µM
[21] = second compound 1 µM, first compound 0.316 µM
[22] = second compound 1 µM, first compound 1 µM
[23] = second compound 1 µM, first compound 3.16 µM
[24] = second compound 1 µM, first compound 10 µM
[25] = second compound 3.16 µM, first compound 0.0316 µM
[26] = second compound 3.16 µM, first compound 0.1 µM
[27] = second compound 3.16 µM, first compound 0.316 µM
[28] = second compound 3.16 µM, first compound 1 µM
[29] = second compound 3.16 µM, first compound 3.16 µM
[30] = second compound 3.16 µM, first compound 10 µM
[31] = second compound 10 µM, first compound 0.0316 µM
[32] = second compound 10 µM, first compound 0.1 µM
[33] = second compound 10 µM, first compound 0.316 µM
[34] = second compound 10 µM, first compound 1 µM
[35] = second compound 10 µM, first compound 3.16 µM
[36] = second compound 10 µM, first compound 10 µM
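Also: spheroids exposed to compounds for one week before readout.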
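For viability, T/C in this document: percent viability relative to DMSO vehicle wells taken as 100%.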

CCCS(=O)(=O)Nc1ccc(F)c(C(=O)c2c[nH]c3ncc(-c4ccc(Cl)cc4)cc23)c1F + Nc1ccc(C#CCN(C(=O)Cc2ncc(C(F)(F)F)cc2C(F)(F)F)c2ccc(F)cc2)nn1
IC50 (second compound 0.0316 µM): 6.35 µM
IC50 (second compound 0.1 µM): 6.1 µM
IC50 (second compound 0.316 µM): 6.23 µM
IC50 (second compound 1 µM): 6.15 µM
IC50 (second compound 3.16 µM): 6.14 µM
IC50 (second compound 10 µM): 5.68 µM
viability, T/C [1]: 107%
viability, T/C [2]: 109%
viability, T/C [3]: 105%
viability, T/C [4]: 110%
viability, T/C [5]: 114%
viability, T/C [6]: 11.4%
viability, T/C [7]: 107%
viability, T/C [8]: 111%
viability, T/C [9]: 110%
viability, T/C [10]: 109%
viability, T/C [11]: 101%
viability, T/C [12]: 11.5%
viability, T/C [13]: 101%
viability, T/C [14]: 104%
viability, T/C [15]: 106%
viability, T/C [16]: 105%
viability, T/C [17]: 102%
viability, T/C [18]: 13.8%
viability, T/C [19]: 112%
viability, T/C [20]: 114%
viability, T/C [21]: 101%
viability, T/C [22]: 111%
viability, T/C [23]: 102%
viability, T/C [24]: 11.9%
viability, T/C [25]: 111%
viability, T/C [26]: 103%
viability, T/C [27]: 107%
viability, T/C [28]: 102%
viability, T/C [29]: 100%
viability, T/C [30]: 13%
viability, T/C [31]: 109%
viability, T/C [32]: 86.3%
viability, T/C [33]: 101%
viability, T/C [34]: 94.4%
viability, T/C [35]: 92.3%
viability, T/C [36]: 9.03%

CCc1cc2c(N3CCc4c(cc(Cn5ccnc5)cc4-c4cn(C)nc4C(F)(F)F)C3=O)ccnc2c(OC)n1 + Nc1ccc(C#CCN(C(=O)Cc2ncc(C(F)(F)F)cc2C(F)(F)F)c2ccc(F)cc2)nn1
IC50 (second compound 0.0316 µM): > 10 µM
IC50 (second compound 0.1 µM): 6.52 µM
IC50 (second compound 0.316 µM): 5.19 µM
IC50 (second compound 1 µM): 3.07 µM
IC50 (second compound 3.16 µM): 4.4 µM
IC50 (second compound 10 µM): 2.69 µM
viability, T/C [1]: 118%
viability, T/C [2]: 111%
viability, T/C [3]: 95.6%
viability, T/C [4]: 56.6%
viability, T/C [5]: 54.1%
viability, T/C [6]: 49.1%
viability, T/C [7]: 117%
viability, T/C [8]: 120%
viability, T/C [9]: 88.8%
viability, T/C [10]: 66.8%
viability, T/C [11]: 55.8%
viability, T/C [12]: 45.4%
viability, T/C [13]: 121%
viability, T/C [14]: 113%
viability, T/C [15]: 98.9%
viability, T/C [16]: 64.7%
viability, T/C [17]: 53.6%
viability, T/C [18]: 46.9%
viability, T/C [19]: 111%
viability, T/C [20]: 107%
viability, T/C [21]: 94.9%
viability, T/C [22]: 56.2%
viability, T/C [23]: 63.8%
viability, T/C [24]: 37.3%
viability, T/C [25]: 115%
viability, T/C [26]: 110%
viability, T/C [27]: 98%
viability, T/C [28]: 70.8%
viability, T/C [29]: 56.4%
viability, T/C [30]: 40.4%
viability, T/C [31]: 100%
viability, T/C [32]: 104%
viability, T/C [33]: 95.3%
viability, T/C [34]: 68.4%
viability, T/C [35]: 48.6%
viability, T/C [36]: 40.4%

Cn1ncnc1[C@H]1c2n[nH]c(=O)c3cc(F)cc(c23)N[C@@H]1c1ccc(F)cc1 + Nc1ccc(C#CCN(C(=O)Cc2ncc(C(F)(F)F)cc2C(F)(F)F)c2ccc(F)cc2)nn1
IC50 (second compound 0.0316 µM): > 0.1 µM
IC50 (second compound 0.1 µM): > 0.1 µM
IC50 (second compound 0.316 µM): > 0.1 µM
IC50 (second compound 1 µM): > 0.1 µM
IC50 (second compound 3.16 µM): > 0.1 µM
IC50 (second compound 10 µM): > 0.1 µM
viability, T/C (second compound 0.0316 µM, first compound 0.000316 µM): 104%
viability, T/C (second compound 0.0316 µM, first compound 0.001 µM): 106%
viability, T/C (second compound 0.0316 µM, first compound 0.00316 µM): 99.7%
viability, T/C (second compound 0.0316 µM, first compound 0.01 µM): 95.1%
viability, T/C [1]: 88.5%
viability, T/C [2]: 86.7%
viability, T/C (second compound 0.1 µM, first compound 0.000316 µM): 112%
viability, T/C (second compound 0.1 µM, first compound 0.001 µM): 91.6%
viability, T/C (second compound 0.1 µM, first compound 0.00316 µM): 107%
viability, T/C (second compound 0.1 µM, first compound 0.01 µM): 113%
viability, T/C [7]: 108%
viability, T/C [8]: 77.6%
viability, T/C (second compound 0.316 µM, first compound 0.000316 µM): 106%
viability, T/C (second compound 0.316 µM, first compound 0.001 µM): 97.3%
viability, T/C (second compound 0.316 µM, first compound 0.00316 µM): 111%
viability, T/C (second compound 0.316 µM, first compound 0.01 µM): 97.2%
viability, T/C [13]: 104%
viability, T/C [14]: 83%
viability, T/C (second compound 1 µM, first compound 0.000316 µM): 108%
viability, T/C (second compound 1 µM, first compound 0.001 µM): 99.9%
viability, T/C (second compound 1 µM, first compound 0.00316 µM): 110%
viability, T/C (second compound 1 µM, first compound 0.01 µM): 93.9%
viability, T/C [19]: 91.2%
viability, T/C [20]: 77.6%
viability, T/C (second compound 3.16 µM, first compound 0.000316 µM): 99.4%
viability, T/C (second compound 3.16 µM, first compound 0.001 µM): 98%
viability, T/C (second compound 3.16 µM, first compound 0.00316 µM): 103%
viability, T/C (second compound 3.16 µM, first compound 0.01 µM): 90.5%
viability, T/C [25]: 99.3%
viability, T/C [26]: 95.7%
viability, T/C (second compound 10 µM, first compound 0.000316 µM): 94.8%
viability, T/C (second compound 10 µM, first compound 0.001 µM): 98.7%
viability, T/C (second compound 10 µM, first compound 0.00316 µM): 101%
viability, T/C (second compound 10 µM, first compound 0.01 µM): 90.9%
viability, T/C [31]: 89.9%
viability, T/C [32]: 65.1%
